Data: US20060240404A1, “Methods of isolating genes encoding proteins of specific function and of screening for pharmaceutically active agents” (Yeda Research And Development Co. Ltd., priority 2000, published 2006)

System: translocation of fibrillar adhesion in GFP-tensin transfected HFF cells
Test: Correlation analysis of fibrillar adhesion dynamics in time-lapse movies of GFP-tensin transfected cells treated with acto-myosin inhibitors
Type: cell-based
Details: for duration till maximum respond after addition / translocation of fibrillar adhesion following addition: 2 mM Lat-A, 150 mM H-7 or 100 mM ML-7; for correlation between sequential frames following addition of inhibitor: Eq. 1, 2 mM Lat-A, 150 mM H-7 or 100 mM ML-7, before treatment <0.65
Method: HFF cells were analyzed by time-lapse fluorescence recording starting 24 hours after transfection with GFP-tensin as described (10). During the recording different inhibitors of acto-myosin contractility were added ([…]) at the time point indicated by the first arrow, and washed out at the time point indicated by the second arrow. In each digital movie, a constant square frame (I) of […] containing only fibrillar adhesions without focal contacts was acquired as a function of time. Correlation was calculated between pairs of subsequent time points (It and It+1) for the duration of the movie. Correlation between It and It+1 was calculated (according to Eq. 1, where N=It and M=It+1). The graphs present this correlation as a function of time (t); and
The basic idea of this novel approach is that correlation is a quantitative measure of image similarity. Correlation is defined as the normalized pixel-by-pixel multiplication of two normalized images M and N (Eq. 1), and it is higher when the similarity between the two images is higher. Thus, if, and only if, N and M are identical images the correlation gets its maximum value of 1. When N equals −M (inverted images) the correlation reaches its minimum value, −1, and when N and M are totally unrelated images the correlation approaches zero. The below correlation equation (Eq. 1) can be extended to evaluate the similarity of two images which, are displaced with respect to each other (Eq. 2). To illustrate how this can be applied to characterize dynamic processes consider 4 cases in which N and M are two images of the same field taken at two close time points: (i) a correlation which equals 1 indicates a lack of any change in the field (since N equals M); (ii) if all the objects in the field are translated one pixel along the x axis, such that Mx,y=Nx+1,y, the correlation defined above will be less then 1. Yet when the objects are bigger then one pixel they will overlap in the two images, and thus the value of the correlation between N and M will be still close to 1; (iii) if the objects are translated 100 pixels, such that Mx,y=Nx+100,y with no overlap between the objects in the two images, the correlation will be low. However there is a single translational vector ([a^max,b^max], Eq. 4), i.e. (1,0) for case (ii) and (100,0) for case (iii), that will bring the two images to perfectly overlap, Mx,y=Nx+a,y+b, and will raise the more general translated correlation (C, Eq. 2) back to its maximal value of unity; (iv) if the objects moved 100 pixels, but different ones moved to different directions, the correlation will be low for all possible translational vectors, since the two images never overlap.
Inhibitors of acto-myosin contractility, like latrunculin-A (Lat-A), H-7 and ML-7, block the translocation of fibrilar adhesion (Zamir et al., Nature Cell Biology, Vol. 2, 191-196, 2000). In order to follow the kinetics of this effect a correlation analysis according to Eq. 1 was applied on digital movies of GFP-tensin transfected cells before, during and after treatments with inhibitors. Before treatment, fibrilar adhesions were highly dynamic and thus the correlation between two sequential frames was low (<0.65, FIG. 2). Following the addition of Lat-A, H-7 or ML-7 the translocation of fibrillar adhesion was inhibited, leading to higher correlation between sequential frames (˜0.78, 0.81 and 0.92 for Lat-A, H-7 and ML-7, respectively). The duration till maximum respond to Lat-A was relatively short (˜8 minutes after addition), while the respond to H-7 and ML-7 were more gradual (˜50 minutes after H-7 addition and ˜80 minutes after ML-7 addition). After washing-out the drugs, the translocation of fibrillar adhesion recovered and the correlation dropped back to lower levels. The recovery from H-7 was relatively fast (<20 minutes) while recovery from Lat-A and ML-7 took relatively long time (>80 minutes).

SMILES	duration till maximum respond after addition [min]	translocation of fibrillar adhesion following addition	correlation between sequential frames following addition of inhibitor	recovery of fibrillar adhesion translocation after washing-out the drug (after wash-out) [min]
CC1CNCCN1S(=O)(=O)c1cccc2cnccc12 (stereo not shown) [H-7]	~50	inhibited	~0.81	< 20
C/C1=C/C(=O)O[C@@H]2C[C@@H](CC[C@H](C)/C=C\C=C\CC1)O[C@@](O)([C@@H]1CSC(=O)N1)C2 [Lat-A, latrunculin-A]	~8	inhibited	~0.78	
O=S(=O)(c1cccc2c(I)cccc12)N1CCCNCC1 [ML-7]	~80	inhibited	~0.92	
